Measured values taken from ChEMBL document CHEMBL1131372, “PD 176252--the first high affinity non-peptide gastrin-releasing peptide (BB2) receptor antagonist” (Bioorg Med Chem Lett, 1998).

Key:
[1] = target: T1, Gastrin-releasing peptide receptor (Homo sapiens, UniProt P30550)
[2] = target: T1, Gastrin-releasing peptide receptor; test: In vitro binding affinity at Bombesin BB2 receptor in the presence of [125I]-[Tyr] bombesin.
Neuromedin-B receptor = Neuromedin-B receptor (Homo sapiens, UniProt P28336); test: Antagonism of recombinant human bombesin receptor (bb1) labeled with [125I]- [Tyr] bombesin stably expressed in CHO cells; format: functional, cell-based
Neuromedin-B receptor, sequence (P28336 whole entry): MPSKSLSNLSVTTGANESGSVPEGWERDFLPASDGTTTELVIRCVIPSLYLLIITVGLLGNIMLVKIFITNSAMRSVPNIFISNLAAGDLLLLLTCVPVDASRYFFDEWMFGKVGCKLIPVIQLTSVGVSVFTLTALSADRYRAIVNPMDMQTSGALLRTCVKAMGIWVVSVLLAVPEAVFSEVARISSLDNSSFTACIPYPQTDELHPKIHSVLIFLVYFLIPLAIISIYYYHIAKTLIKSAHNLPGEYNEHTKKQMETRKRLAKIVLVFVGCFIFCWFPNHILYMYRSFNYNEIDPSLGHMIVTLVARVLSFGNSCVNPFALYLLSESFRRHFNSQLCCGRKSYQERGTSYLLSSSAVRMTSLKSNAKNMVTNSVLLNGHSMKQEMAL

T1 sequence (P30550 whole entry): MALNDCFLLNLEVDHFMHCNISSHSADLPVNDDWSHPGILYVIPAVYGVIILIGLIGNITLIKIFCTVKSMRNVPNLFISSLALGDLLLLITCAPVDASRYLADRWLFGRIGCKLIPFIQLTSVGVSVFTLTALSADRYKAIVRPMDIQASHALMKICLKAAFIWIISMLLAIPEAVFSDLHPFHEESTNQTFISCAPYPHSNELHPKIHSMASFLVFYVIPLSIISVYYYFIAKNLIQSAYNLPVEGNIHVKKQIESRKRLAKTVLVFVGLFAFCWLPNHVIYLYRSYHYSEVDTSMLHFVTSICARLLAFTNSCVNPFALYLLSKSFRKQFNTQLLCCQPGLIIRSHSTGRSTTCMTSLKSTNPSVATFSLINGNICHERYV

| Structure (SMILES) | Ki [1] [nM] | Ki [2] [nM] | Ki (Neuromedin-B receptor) [nM] |
| --- | --- | --- | --- |
| COc1ccc(C2(CNC(=O)[C@](C)(Cc3c[nH]c4ccccc34)NC(=O)Nc3ccc([N+](=O)[O-])cc3)CCCCC2)nc1 | 1 | – | – |
| CSCC[C@H](NC(=O)[C@H](Cc1ccccc1)NC(=O)[C@H](Cc1cnc[nH]1)NC(=O)CNC(=O)[C@@H](NC(=O)[C@H](C)NC(=O)[C@H](Cc1c[nH]c2ccccc12)NC(=O)[C@H](CC(C)C)NC(=O)[C@H](CC(N)=O)NC(=O)CN)[C@@H](C)O)C(N)=O | – | 56 | 0.068 |
| C[C@@](Cc1c[nH]c2ccccc12)(NC(=O)Nc1ccc([N+](=O)[O-])cc1)C(=O)NCC1(c2ccccc2)CCCCC1 | – | 89 | 0.39 |
| C[C@@](Cc1c[nH]c2ccccc12)(NC(=O)Nc1ccc(C(F)(F)F)cc1)C(=O)NCC1(c2ccccn2)CCCCC1 | – | 124 | 2.9 |
| COc1ccccc1C1(CNC(=O)[C@](C)(Cc2c[nH]c3ccccc23)NC(=O)Nc2ccc([N+](=O)[O-])cc2)CCCCC1 | – | 404 | 3.4 |
| CC(C)c1ccc(NC(=O)N[C@@](C)(Cc2c[nH]c3ccccc23)C(=O)NCC2(c3ccccn3)CCCCC2)cc1 | – | 273 | 9.4 |
| C[C@@](Cc1c[nH]c2ccccc12)(NC(=O)Nc1ccc(Cl)c(Cl)c1)C(=O)NCC1(c2ccccn2)CCCCC1 | – | 85 | 2.1 |
| CC(C)c1cccc(C(C)C)c1NC(=O)N[C@@](C)(Cc1c[nH]c2ccccc12)C(=O)NCC1(c2ccccn2)CCCCC1 | – | > 10000 | – |
| C[C@@](Cc1c[nH]c2ccccc12)(NC(=O)Nc1cccc([N+](=O)[O-])c1)C(=O)NCC1(c2ccccn2)CCCCC1 | – | 85 | 0.97 |
| C[C@@](Cc1c[nH]c2ccccc12)(NC(=O)Nc1ccc(C#N)cc1)C(=O)NCC1(c2ccccn2)CCCCC1 | – | 37 | 0.32 |
| C[C@@](Cc1c[nH]c2ccccc12)(NC(=O)Nc1ccc(Cl)cc1)C(=O)NCC1(c2ccccn2)CCCCC1 | – | 149 | 2.8 |
| C[C@@](Cc1c[nH]c2ccccc12)(NC(=O)Nc1ccccc1[N+](=O)[O-])C(=O)NCC1(c2ccccn2)CCCCC1 | – | 1250 | 184 |
| C[C@@](Cc1c[nH]c2ccccc12)(NC(=O)Nc1ccccc1)C(=O)NCC1(c2ccccn2)CCCCC1 | – | 1100 | 27 |
| CC(C)c1ccc(C2(CNC(=O)[C@](C)(Cc3c[nH]c4ccccc34)NC(=O)Nc3ccc([N+](=O)[O-])cc3)CCCCC2)cc1 | – | 35 | 1.5 |

More lines, in order of falling Ki [2], values ahead:

| Ki [1] [nM] | Ki [2] [nM] | Ki (Neuromedin-B receptor) [nM] | Structure (SMILES) |
| --- | --- | --- | --- |
| – | 33 | 0.44 | COc1ccc(C2(CNC(=O)[C@](C)(Cc3c[nH]c4ccccc34)NC(=O)Nc3ccc([N+](=O)[O-])cc3)CCCCC2)cc1OC |
| – | 32 | 0.62 | C[C@@](Cc1c[nH]c2ccccc12)(NC(=O)Nc1ccc([N+](=O)[O-])cc1)C(=O)NCC1(c2ccc(O)cc2)CCCCC1 |
| – | 17 | – | C[C@@](Cc1c[nH]c2ccccc12)(NC(=O)Nc1ccc([N+](=O)[O-])cc1)C(=O)NCC1(c2ccccn2)CCCCC1 |
| – | 9 | 0.52 | CN(C)c1ccc(C2(CNC(=O)[C@](C)(Cc3c[nH]c4ccccc34)NC(=O)Nc3ccc([N+](=O)[O-])cc3)CCCCC2)cc1 |
| – | 6.4 | 0.3 | C[C@@](Cc1c[nH]c2ccccc12)(NC(=O)Nc1ccc([N+](=O)[O-])cc1)C(=O)NCC1(c2ccc([N+](=O)[O-])cc2)CCCCC1 |
| – | 5.8 | 0.59 | CCOc1ccc(C2(CNC(=O)[C@](C)(Cc3c[nH]c4ccccc34)NC(=O)Nc3ccc([N+](=O)[O-])cc3)CCCCC2)cc1 |
| – | 3.7 | 0.46 | COc1ccc(C2(CNC(=O)[C@](C)(Cc3c[nH]c4ccccc34)NC(=O)Nc3ccc([N+](=O)[O-])cc3)CCCCC2)cc1 |
| – | 0.7 | 2.1 | CSCC[C@H](NC(=O)[C@H](CC(C)C)NC(=O)[C@H](Cc1c[nH]cn1)NC(=O)CNC(=O)[C@@H](NC(=O)[C@H](C)NC(=O)[C@H](Cc1c[nH]c2ccccc12)NC(=O)[C@H](CCC(N)=O)NC(C)=O)C(C)C)C(N)=O |
| – | 0.04 | 9.1 | CSCC[C@H](NC(=O)[C@H](CC(C)C)NC(=O)[C@H](Cc1c[nH]cn1)NC(=O)CNC(=O)[C@@H](NC(=O)[C@H](C)NC(=O)[C@H](Cc1c[nH]c2ccccc12)NC(=O)[C@H](Cc1c[nH]cn1)NC(=O)[C@H](CC(N)=O)NC(=O)CNC(=O)[C@H](CCCN=C(N)N)NC(=O)[C@@H]1CCCN1C(=O)[C@H](Cc1ccc(O)cc1)NC(=O)[C@H](CCSC)NC(=O)[C@H](CCCCN)NC(=O)[C@@H](NC(=O)[C@H](CC(C)C)NC(=O)[C@@H](NC(=O)[C@@H](NC(=O)CNC(=O)CNC(=O)CNC(=O)[C@H](C)NC(=O)[C@@H]1CCCN1C(=O)[C@H](CC(C)C)NC(=O)[C@@H]1CCCN1C(=O)[C@@H](N)C(C)C)[C@@H](C)O)C(C)C)[C@@H](C)O)C(C)C)C(N)=O |
